Reference: ChEMBL document CHEMBL2074382, “Improvement of L-dopa absorption by dipeptidyl derivation, utilizing peptide transporter PepT1” (J Pharm Sci, 1998)
Non-standard residues stand in square brackets, D forms with d. Residues, ends and D or L forms follow the SMILES beside them. Dopa = N[C@@H](Cc1ccc(O)c(O)c1)C(=O)O

Columns and labels:
[1] = target: T1, Solute carrier family 15 member 1 (Homo sapiens) (UniProt P46059); test: TP_TRANSPORTER: uptake in Xenopus laevis oocytes; assay type: functional, cell-based; conditions: Oocyte
T1 sequence (whole entry): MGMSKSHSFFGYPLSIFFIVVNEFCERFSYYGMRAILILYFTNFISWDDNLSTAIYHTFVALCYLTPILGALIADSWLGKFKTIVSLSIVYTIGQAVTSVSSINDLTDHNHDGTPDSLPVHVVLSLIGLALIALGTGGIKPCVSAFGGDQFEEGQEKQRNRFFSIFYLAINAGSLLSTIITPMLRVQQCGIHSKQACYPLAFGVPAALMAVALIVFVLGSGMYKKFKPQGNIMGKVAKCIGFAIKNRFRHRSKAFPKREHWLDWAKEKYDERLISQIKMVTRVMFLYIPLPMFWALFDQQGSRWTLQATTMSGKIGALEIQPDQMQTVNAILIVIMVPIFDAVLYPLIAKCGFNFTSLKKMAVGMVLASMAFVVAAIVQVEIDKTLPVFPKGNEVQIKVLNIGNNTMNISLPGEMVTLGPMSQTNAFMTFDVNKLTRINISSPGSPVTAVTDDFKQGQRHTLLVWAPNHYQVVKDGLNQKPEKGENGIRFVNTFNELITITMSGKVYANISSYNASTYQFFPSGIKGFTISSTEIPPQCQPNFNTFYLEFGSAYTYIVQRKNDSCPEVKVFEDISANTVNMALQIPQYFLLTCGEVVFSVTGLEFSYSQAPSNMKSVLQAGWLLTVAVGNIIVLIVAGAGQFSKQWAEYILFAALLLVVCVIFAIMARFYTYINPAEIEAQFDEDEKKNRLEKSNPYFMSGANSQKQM

[2] = target: T1, Solute carrier family 15 member 1 (Homo sapiens); test: TP_TRANSPORTER: inhibition of Gly-Sar uptake (Gly-Sar: 20 uM, L-dopa-L-Phe: 1000 uM) in Caco-2 cells; assay type: functional, cell-based

Compound	Activity [1]	Activity [2]
N[C@@H](Cc1ccccc1)C(=O)N1CCC[C@@H]1C(=O)O	substrate [+]	
N[C@@H](Cc1ccccc1)C(=O)N1CCC[C@H]1C(=O)O	substrate [+]	
NC(=O)[C@H](Cc1ccccc1)NC(=O)[C@@H](N)Cc1ccccc1 (H-Phe-Phe-NH2)	substrate [+]	
N[C@@H](Cc1ccc(O)c(O)c1)C(=O)N[C@@H](Cc1ccccc1)C(=O)O (H-[Dopa]-Phe-OH)	substrate [+]	inhibitor [20% (at a rough estimate) of control]
